From patent publication US11919898B2, “Crystal form of azaindole derivative and use thereof” (Wuxi Life Fountain Biotech Co., Ltd, priority 2020, dated 2024)
pIC50: −log10 of the molar value. Read-outs that look alike come from different tables or passages of the source.

How the values were obtained:
human FGFR1 = target: T1, human FGFR1 (Homo sapiens, UniProt P11362); assay: 33P isotope-labeled kinase activity assay, FGFR1; format: biochemical; conditions: ATP 5 μM
T1 construct: purchased Invitrogen PV3146
T1 sequence (P11362 22-822): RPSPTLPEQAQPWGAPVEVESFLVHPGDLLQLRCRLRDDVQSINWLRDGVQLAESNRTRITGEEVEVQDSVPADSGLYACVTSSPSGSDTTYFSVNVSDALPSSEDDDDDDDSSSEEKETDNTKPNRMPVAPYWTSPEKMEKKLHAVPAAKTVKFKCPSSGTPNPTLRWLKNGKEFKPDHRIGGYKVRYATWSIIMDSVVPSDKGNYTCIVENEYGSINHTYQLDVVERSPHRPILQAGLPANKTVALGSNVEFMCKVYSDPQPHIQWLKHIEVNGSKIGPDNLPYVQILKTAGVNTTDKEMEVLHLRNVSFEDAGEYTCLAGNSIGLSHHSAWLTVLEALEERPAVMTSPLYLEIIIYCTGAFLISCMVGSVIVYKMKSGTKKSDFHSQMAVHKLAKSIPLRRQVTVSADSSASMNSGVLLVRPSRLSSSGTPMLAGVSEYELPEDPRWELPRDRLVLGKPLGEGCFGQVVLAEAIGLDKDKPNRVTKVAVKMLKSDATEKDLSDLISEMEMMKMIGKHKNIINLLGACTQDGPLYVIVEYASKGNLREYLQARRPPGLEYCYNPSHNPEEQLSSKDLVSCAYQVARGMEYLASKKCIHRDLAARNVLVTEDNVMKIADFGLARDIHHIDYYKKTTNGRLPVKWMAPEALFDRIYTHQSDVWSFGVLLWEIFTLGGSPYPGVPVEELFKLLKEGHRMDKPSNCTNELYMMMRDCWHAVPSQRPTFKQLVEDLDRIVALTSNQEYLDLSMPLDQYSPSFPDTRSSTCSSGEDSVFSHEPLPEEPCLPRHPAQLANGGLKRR
Description: The IC50 value was tested by ^33P isotope-labeled kinase activity assay (Reaction Biology Corp) to evaluate the inhibition of the test compounds on human FGFR1, FGFR4, and c-Met.
Buffer: 20 mM Hepes (pH 7.5), 10 mM MgCl2, 1 mM EGTA, 0.02% Brij35, 0.02 mg/ml BSA, 0.1 mMNa3VO4, 2 mM DTT, and 1% DMSO.
Test procedure: At room temperature, the test compound was dissolved in DMSO to prepare a 10 mM solution for use. The substrate was dissolved in freshly prepared buffer, and the test kinase was added and mixed well. A solution of the test compound in DMSO was added to the mixed reaction solution using an acoustic technology (Echo550). […] After 15 min of incubation, ^33P-ATP (with an activity of 0.01 μCi/nL, the corresponding concentration is listed in Table 18) was added to start the reaction. […] The kinase activity data were expressed by the comparison of the kinase activity in the presence of the test compound with the kinase activity of the blank group (containing only DMSO), and an IC50 value was obtained by curve fitting with Prism4 software (GraphPad).

[1] = Solubility test in media of various pH (water, SGF, FaSSIF, FeSSIF); format: physicochemical; conditions: for solubility at 24 h: read-out: Solubility (mg/ml)_24 h
Description: The solubility of the crystal form A of the compound of Formula (II) in 4 media with different pH values was tested. About 10 mg of the crystal form A of the compound of Formula (II) was weighed, and then 5.0 mL of different media (water, SGF, FaSSIF, and FeSSIF) were added respectively, to form a suspension. A magnetron was added to the suspension and the suspension was stirred on a magnetic stirrer for 2 hrs, and a sample was taken and centrifuged after 4 hrs. The sample in the upper layer was determined for concentration by HPLC and determined for the pH value.
• FaSSIF: (1). 0.042 g of sodium hydroxide, 0.3438 g of sodium dihydrogen phosphate and 0.6186 g of sodium chloride were weighed, added to 90 mL of purified water and mixed well. The solution was adjusted to pH 6.5 with 1 N hydrochloric acid or 1 N sodium hydroxide, and made up to 100 mL with purified water. (2). 0.224 g of commercially available powder of FaSSIF/FeSSIF/FaSSGF was added to 50 mL of the buffer, stirred until dissolved, and made up to 100 mL with purified water. The prepared buffer was left to stand at room temperature for 2 hrs, and observed to be slightly milky white, which was ready for use (simulating intestinal juice in human before eating). • FeSSIF: (1). 0.404 g of sodium hydroxide, and 0.865 g of glacial acetic acid, 1.1874 g of sodium chloride were weighed and added to 90 mL of purified water and mixed well. The solution was adjusted to pH 5.0 with 1 N hydrochloric acid or 1 N sodium hydroxide, and made up to 100 mL with purified water. (2). 1.12 g of commercially available powder of FaSSIF/FeSSIF/FaSSGF was added to 50 mL of the buffer, stirred until dissolved, and made up to 100 mL with purified water. The prepared buffer was left to stand at room temperature for 2 hrs, and observed to be a clear liquid, which was ready for use (simulating intestinal juice in human after eating). • FaSSGF (SGF): (1). 0.2 g of sodium chloride was weighed and added to 90 mL of purified water and mixed well. The solution was adjusted to pH 1.8 with 1 N hydrochloric acid, made up to 100 mL with purified water, and left to stand until it was naturally cooled to room temperature (simulating human gastric juice before eating).

SNU-16 xenograft model = assay: In vivo pharmacodynamic evaluation, SNU-16 xenograft model; design: species or system nude mice; conditions: for TGI % (the last dose is given on day 30): SNU-16 xenograft model, nude mice
Description: SNU-16 cells in logarithmic growth phase were harvested, counted and resuspended in 50% PBS (pH 7.4, 0.01 M) and 50% Matrigel. The cell concentration was adjusted to 4×10^7 cells/mL, and the cells were then placed in an ice box. The cell suspension was aspirated with a 1 mL syringe and injected subcutaneously into the anterior right axilla of nude mice, at a dose of 200 μL/animal (8×10^6 cells/animal) to establish a SNU-16 xenograft model. The animal status was observed periodically, and the tumor size was measured using an electronic vernier caliper. The data was entered into an Excel spreadsheet, and the tumor volume was calculated, to monitor the tumor growth. When the tumor volume reached 100-300 mm^3, 35 tumor-bearing mice (with a tumor volume of 112-182 mm^3) in good health status having similar tumor volume were selected and randomized into 5 groups (n=7). The average tumor volume in each group was about 150 mm^3. After the test was started, the tumor size was measured twice a week, the tumor volume was calculated, and the body weight of the animal was weighed and recorded.
Analysis of tumor growth inhibition (TGI): The evolutionary growth potential of tumors was evaluated by the relationship between the tumor volume and time. The long axis (L) and short axis (W) of subcutaneous tumor were measured twice a week by a caliper, and the tumor volume (TV) was calculated by the formula ((L×W^2)/2). TGI was calculated from the difference between the median tumor volume of the mice in the solvent group and the median tumor volume of the mice in the drug group, and expressed as a percentage relative to the median tumor volume in the solvent control group.
The test data was calculated and statistically processed by SPSS19.0. Unless otherwise specified, the data were expressed as mean±standard error (Mean±SE), and the comparison between the two groups was analyzed by T-test. […] The solvent 30% PEG400 (containing 70% deionized water, v/v) alone was used as the negative control.

- pIC50 (human FGFR1): 9.70
- solubility at 24 h ([1]; SGF (FaSSGF), pH 1.25, simulated gastric fluid, thermodynamic from solid, SGF, pH (24 h) 1.25, suspension): 0.112 mg/mL
- solubility at 24 h ([1]; pH 4.89, thermodynamic from solid, FeSSIF, pH (24 h) 4.89, suspension): 0.252 mg/mL
- solubility at 24 h ([1]; pH 5.55, thermodynamic from solid, FaSSIF, pH (24 h) 5.55, suspension): 0.004 mg/mL
- Solubility in words ([1]; simulated gastric juice before eating in human (SGF)): good
- Solubility in words ([1]; simulated intestinal juice before eating (FaSSIF)): poor
- Solubility in words ([1]; simulated intestinal juice of the small intestine after eating in human (FeSSIF)): good
- Solubility in words ([1]; water): hard to dissolve in water
- solubility at 24 h ([1]; water, pH 2.42, water, thermodynamic from solid): 0.009 mg/mL
Compound: COc1cc(OC)c(F)c(Cc2c[nH]c3ncc(-c4cnn(CCO)c4)cc23)c1F.Cl
- TGI % (the last dose is given on day 30) (SNU-16 xenograft model; 2.5 mg/kg BID): 72%
- TGI % (the last dose is given on day 30) (SNU-16 xenograft model; 5.0 mg/kg BID): 86%
- Tumor inhibitory effect (SNU-16 xenograft model; tumor model SNU-16, nude mice): excellent tumor inhibitory effect
